Data: patent publication US12691115B2, “Methods for treatment of obesity, atherosclerosis, and thrombosis” (Marshall University Research Corporation, priority 2019, dated 2026)
Entries after “also recorded” stand apart in the source; their conditions may differ. Where a name gives a salt, the structure may show the parent alone.

What was measured:
WT mice [1] = settings: mouse, in vivo; for mice considered to have bleeding side effects: male, 1 week
Protocol: (§1) Murine carotid artery thrombosis model and tail bleeding assay. Detailed ferric chloride (FeCl3) induced carotid artery thrombosis model has been described before. […] The endpoints were set as follows: 1) blood flow has ceased for >30 seconds; or 2) occlusion is not seen after 30 minutes of FeCl3 injury. […] In some experiments, a jugular vein catheter prepared with P-10 tubing was placed for drug administration after 5 minutes of thrombus initiation. Thrombus formation was continually monitored using the endpoints mentioned above. Tail bleeding assay was either conducted on mice immediately after the thrombosis study or on mice that were not used for the in vivo thrombosis study. […] Tail bleeding assay was conducted on these mice immediately after the thrombosis study.

WT mice [2] = assay: 7.5% FeCl3 induced carotid artery thrombosis model, drug given before injury; assay type: in vivo, mouse; settings: for lowest effective dose with significant antithrombotic effect: gavage for one week; for lowest dose in inhibiting mouse thrombosis: in vivo
Protocol: as §1

platelets [3] = settings: cited from earlier work
[4] = cited from earlier work
WT mice [5] = assay: FeCl3 thrombosis model, bolus injection via jugular vein catheter 5 minutes after thrombus initiation; assay type: in vivo, mouse
Protocol: Murine carotid artery thrombosis model and tail bleeding assay. Detailed ferric chloride (FeCl3) induced carotid artery thrombosis model has been described before. Vessel injury was induced by 7.5% FeCl3 solution to the carotid artery for 1 minute. […] The endpoints were set as follows: 1) blood flow has ceased for >30 seconds; or 2) occlusion is not seen after 30 minutes of FeCl3 injury. In this case, 30 minutes was assigned to that mouse for the statistical analysis. In some experiments, a jugular vein catheter prepared with P-10 tubing was placed for drug administration after 5 minutes of thrombus initiation. Thrombus formation was continually monitored using the endpoints mentioned above. Tail bleeding assay was either conducted on mice immediately after the thrombosis study or on mice that were not used for the in vivo thrombosis study.

platelets in PRP = assay: Mouse platelet aggregation assay (PRP); assay type: cell-based
From the text: Mouse platelet aggregation assay. […] Platelet-rich plasma (PRP) was used for platelet aggregation assay. […] Same volume of vehicle (DMSO or saline)-treated platelets was used as controls.

C57Bl6 wild type mice = assay: Western diet induced body weight gain; assay type: in vivo, mouse; settings: gavage 1 mg/kg/day, western diet TD.88137, vs saline, hydrochloride
From the text: To determine if inhibition of TYMP could attenuate or inhibit obesity in vivo, C57Bl6 wild type mice were fed with a western diet (TD.88137, 42% calories from fat), started from 6 to 8 […], to facilitate their weight gain. […] Mice received the same volume of saline feeding as a control. Body weight gain was monitored weekly, and data were presented as mean of the accumulated weight gain from each mice at each week. N=3 in the saline-feeding group, and 2 in the TPI-feeding group.

AKT = assay: ADP-induced AKT phosphorylation in platelets (immunoblot); assay type: cell-based, mouse; settings: 50 μM TPI, 2.5 μM ADP, especially the second phase
Protocol: Evaluation of platelet signaling activation. Platelets in PRP were stimulated with 2.5 μM ADP for 0, 1, 3, and 5 minutes, then lysed with radioimmunoprecipitation assay (RIPA) buffer containing proteinase/phosphatase inhibitor cocktail. The lysates were subsequently used for AKT activation immunoblotting assays. ADP-stimulated p-selectin expression was analyzed by flow cytometry.

[6] = as component of Lonsurf (TAS-102); no systemic bleeding observed; cited from earlier work
platelets [7] = assay: Cellix flow chamber-based platelet adhesion and aggregation assay; assay type: cell-based, mouse
Protocol: Cellix flow chamber-based platelet adhesion and aggregation assay. Cellix flow chambers were coated with collagen 10 μg/mL in PBS. Whole blood was drawn from mouse IVC using 0.109 M sodium citrate as an anticoagulant, stained with Rhodamine 6G, and then used for the flow chamber mediated adhesion and aggregation assay. Some of the whole blood was treated with or without TPI before it was perfused into the chamber.

Apoe^−/− mice = assay: Apoe−/− mice on WD gavage fed with TPI: liver fat accumulation and atherosclerotic lesions (Oil Red O); assay type: in vivo, mouse; settings: gavage 60 μg/Kg/day, 4 weeks, vs saline
From the text: As mentioned above, TYMP enhances platelet activation in vitro and promotes thrombosis in vivo, making TYMP a potential target for antithrombotic therapy. […] Age-matched Apoe^−/− mice on WD fed with saline were used as controls.

TYMP and Lyn = biological target: T1, TYMP and Lyn (Homo sapiens, UniProt P19971); assay: Association of TYMP and Lyn (pull-down, Cos-7 cells); assay type: binding; settings: TPI treatment
T1 construct: overexpressing full length human TYMP and Lyn in Cos-7 cells; expressed in transfected cells; host or cells: COS-7
T1 sequence (P19971 11-482): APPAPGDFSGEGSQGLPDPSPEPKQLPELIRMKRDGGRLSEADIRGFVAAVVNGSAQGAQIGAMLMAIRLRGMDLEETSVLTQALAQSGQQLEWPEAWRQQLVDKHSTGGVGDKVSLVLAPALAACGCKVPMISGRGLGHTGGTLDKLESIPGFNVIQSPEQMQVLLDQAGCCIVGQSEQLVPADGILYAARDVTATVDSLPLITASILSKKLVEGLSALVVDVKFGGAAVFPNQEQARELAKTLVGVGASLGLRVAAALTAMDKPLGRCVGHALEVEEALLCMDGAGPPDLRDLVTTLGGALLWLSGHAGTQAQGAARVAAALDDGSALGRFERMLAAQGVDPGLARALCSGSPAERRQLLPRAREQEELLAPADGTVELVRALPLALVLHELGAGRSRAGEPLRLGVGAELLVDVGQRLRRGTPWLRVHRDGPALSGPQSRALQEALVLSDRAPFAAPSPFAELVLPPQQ
From the text: Generation of fusion proteins to determine that TYMP binds to LYN through the SH3 binding domain. Human SH3 domain nucleotides (hLynSH3, amino acids 63-123) were amplified by PCR and cloned into a mammalian expression vector pEBG (Addgene, plasmid #22227) with an N-terminal glutathione S-transferase (GST) affinity tag (pEBG-GST-hLynSH3). A pCDNA6B/his-hTYMP plasmid vector was previously constructed. pEBG-GST-hLynSH3 and pCDNA6B/his-hTYMP plasmids were co-transfected into COS-7 cells, lysed in a Pierce™ IP Lysis Buffer (ThermoFisher Scientific), and used for GST pull down assay. Eluates were used for Western blot assay to confirm the presence of TYMP.
pEGFP-N1-human Lyn-GFP and pCDNA6B/his-hTYMP plasmids were also co-transfected into the COS-7 cells. TYMP was pulled down using immobilized Ni-NTA on magnetic sepharose beads (GE Healthcare Life Sciences) for His-tagged protein purification. His-hTYMP eluates were used for western blot assay for Lyn.

[8] = test system: WT mice fed a western diet; assay: FeCl3 thrombosis model under hyperlipidemia (western diet); assay type: in vivo, mouse; settings: TPI 1 mg/kg for one week, WD 4 weeks
From the text: Examination of the effect of TYMP inhibition on thrombosis under hyperlipidemia. WT mice were fed a western diet (WD, TD.88137) for a total of 4 weeks. […] These mice were then subjected to the thrombosis study using the 7.5% FeCl3 induced thrombosis model.

[9] = bolus 17 and 1 mg/kg TPI, 5 min after injury

For `CC(=O)Oc1ccccc1C(=O)O` [aspirin], the “mice considered to have bleeding side effects” value (“mice considered” for short) (WT mice [1]) was 50%, the inhibiting thrombosis (WT mice [2]; gavage aspirin 0.5 mg/kg/day for 7 days) was “no effect” and the “lowest effective dose with significant antithrombotic effect” value (WT mice [2]) was 1 mg/kg/day. The “lowest dose in inhibiting mouse thrombosis” value (WT mice [2]) was 1 mg/kg.
In the case of `Oc1ncnc2c1ncn2[C@@H]1O[C@H](COC(c2ccccc2)(c2ccccc2)c2ccccc2)[C@@H](O)[C@H]1O` [KIN59, 5′-O-tritylinosine], the “platelet activation in vitro” value (platelets [3]) is given as “dramatically inhibited” and the thrombosis in vivo [4] is given as “dramatically inhibited”.
For “tPA: tissue plasminogen activator (Activase), FDA-approved clot-busting drug”, the “lysis of established thrombi” value (WT mice [5]; bolus 1 mg/kg, 5 min after vascular injury) was “effectively lysed”, the “lowest effective dose on thrombolysis” value (WT mice [5]; bolus 5 min after injury) was 0.25 to 0.5 mg/kg and the thrombolytic action (WT mice [5]; tPA 0.25 and 0.125 mg/kg) was “no thrombolytic action”.
In the case of `[H]/N=C1\CCCN1Cc1[nH]c(=O)[nH]c(=O)c1Cl` [TPI, tipiracil hydrochloride], the “ADP-induced aggregation of Tymp−/− platelets” value (platelets in PRP; 50 μM TPI, 2.5 μM ADP, Tymp−/− platelets) is reported as “had no effect”, the “ADP-induced WT platelet aggregation” value (platelets in PRP; 50 μM TPI, 2.5 μM ADP, WT platelets) is reported as “attenuated” and the CRP-induced platelet aggregation (platelets in PRP; 50 μM TPI, 2 minutes pretreatment) is reported as “completely blocked”. For the same compound, the collagen-induced platelet aggregation (platelets in PRP; WT platelets, different concentrations of TPI, collagen 1 μg/ml) was “dose-dependently inhibited”, the “CRP-induced platelet shape change” value (platelets in PRP; dose-dependently at 250, 125 and 62.5 μM, 0.5 μg/ml CRP) was “inhibited” and the “WD-induced body weight gain” value (C57Bl6 wild type mice) was “reduced; also recorded: decreases”. For the same compound, the “ADP-stimulated AKT phosphorylation” value (AKT) was “dramatically reduced”, the “systemic safety in clinical trials” value [6] was “systemically safe” and the “platelet aggregation to the collagen-coated surface” value (platelets [7]; 50 μM TPI, WT whole blood, shear 65 dyn/cm^2, 3 minutes) was “significantly reduced”. The “platelet adhesion to collagen” value (platelets [7]; TYMP inhibition, collagen-coated flow chamber) was “does not affect”, the “mice considered” value (WT mice [1]) was 28.5% and the “frequency of bleeding compared with clopidogrel-treated mice” value (WT mice [1]) was “significantly decreased”. The “atherosclerotic plaque areas formation in aortic root” value (Apoe^−/− mice) was “attenuated”, the “lipid accumulation in livers” value (Apoe^−/− mice) was “attenuated” and the “association of TYMP and Lyn” value (TYMP and Lyn) was “disrupted”. The occlusive thrombus formation (WT mice [5]; TPI 50 μg/kg intravenous injection) was “did not inhibit”, the blood flow cessation (WT mice [5]; [9]) was “no blood flow cessation” and the “thrombosis formation (time)” value (WT mice [5]; [9]) was “significantly prolonged”. For the same compound, the “lowest effective dose on inhibiting the growth of the on-site thrombus” value (WT mice [5]; bolus 5 min after injury) was 50 to 100 µg/kg, the hyperlipidemia-enhanced thrombosis [8] was “dramatically reduced” and the in vivo thrombosis (WT mice [2]; gavage 60 μg/kg/day for 3 days) was “significantly inhibited”. For the same compound, the “occlusive thrombus formation in the carotid arteries” value (WT mice [2]; intraperitoneal 17 mg/kg once per day for three days) was “completely inhibited”, the thrombosis (WT mice [2]; intravenous injection 1.7 and 0.17 mg/kg, vs saline) was “significantly inhibited” and the “effective dose (anti-thrombotic)” value (WT mice [2]; without significantly affecting hemostasis) was at most 60 µg/kg/day.
For `COC(=O)[C@H](c1ccccc1Cl)N1CCc2sccc2C1` [clopidogrel], the “mice considered” value (WT mice [1]) was 75%, the “lowest effective dose with significant antithrombotic effect” value (WT mice [2]) was 2.5 mg/kg/day and the “lowest dose in inhibiting mouse thrombosis” value (WT mice [2]) was 2.5 mg/kg.
